Three molecules from patent US11185075B2, “Herbicidal phenyltriazolinones” (BASF SE, priority 2016, dated 2021) can be followed below.

Structures are written as SMILES.

Holding throughout (type): in vivo
In one assay the test system is Alopecurus myosuroides. As to the kind of experiment: greenhouse post-emergence herbicidal test. As to conditions: scale from 0 to 100. From the text: (§1) The seeds of the test plants were sown separately for each species. For the post-emergence treatment, the test plants were first grown to a height of 3 to 15 cm, depending on the plant habit, and only then treated with the active ingredients which had been suspended or emulsified in water. For this purpose, the test plants were either sown directly and grown in the same containers, or they were first grown separately as seedlings and transplanted into the test containers a few days prior to treatment. Depending on the species, the plants were kept at 10-25° C. or 20-35° C., respectively. The test period extended over 2 to 4 weeks. During this time, the plants were tended, and their response to the individual treatments was evaluated. Evaluation was carried out using a scale from 0 to 100. 100 means no emergence of the plants, or complete destruction of at least the aerial moieties, and 0 means no damage, or normal course of growth. A good herbicidal activity is given at values of at least 70 and a very good herbicidal activity is given at values of at least 85.

For a further assay, the system named is Avena fatua. Briefly: greenhouse post-emergence herbicidal test. As to conditions: 16 g/ha, scale from 0 to 100.
Excerpt: as §1

The subject of another assay is Lolium multiflorum. Briefly: greenhouse post-emergence herbicidal test. As to conditions: 4 g/ha, scale from 0 to 100.
Excerpt: as §1

A further assay relates to Amaranthus retroflexus. Briefly: greenhouse pre-emergence herbicidal test. Particulars: 16 g/ha, scale from 0 to 100. An excerpt: (§2) The seeds of the test plants were sown separately for each species. For the pre-emergence treatment, the active ingredients, which had been suspended or emulsified in water, were applied directly after sowing by means of finely distributing nozzles. The containers were irrigated gently to promote germination and growth and subsequently covered with transparent plastic hoods until the plants had rooted. This cover caused uniform germination of the test plants, unless this had been impaired by the active ingredients. Depending on the species, the plants were kept at 10-25° C. or 20-35° C., respectively. The test period extended over 2 to 4 weeks. During this time, the plants were tended, and their response to the individual treatments was evaluated. Evaluation was carried out using a scale from 0 to 100. 100 means no emergence of the plants, or complete destruction of at least the aerial moieties, and 0 means no damage, or normal course of growth. A good herbicidal activity is given at values of at least 70 and a very good herbicidal activity is given at values of at least 85.

For the next assay, the system named is Setaria faberi. Briefly: greenhouse pre-emergence herbicidal test. As to conditions: 16 g/ha, scale from 0 to 100.
Excerpt: as §2

Consider `CCOC(=O)COc1ccccc1Oc1cc(-n2nc(C)n(C(F)F)c2=O)c(F)cc1Cl` [Example 3, Ethyl 2-[2-[2-chloro-5-[4-(difluoromethyl)-3-methyl-5-oxo-1,2,4-triazol-1-yl]-4-fluoro-phenoxy]phenoxy]acetate], for which the “damages, Alopecurus myosuroides” value with Alopecurus myosuroides (4 g/ha) came out at 70; with Alopecurus myosuroides (16 g/ha), 95. The “damages, Avena fatua” value in the assay with Avena fatua stood at 70. In addition, the “damages, Lolium multiflorum” value in the assay with Lolium multiflorum was 90. Further, the “damages, Amaranthus retroflexus” value in the assay with Amaranthus retroflexus is reported as 85. Further, the “damages, Setaria faberi” value in the assay with Setaria faberi turned out to be 85.

For the molecule `CCOC(=O)COc1cccc(Oc2cc(-n3nc(C)n(C(F)F)c3=O)c(F)cc2Cl)c1` [compound A], the “damages, Alopecurus myosuroides” value in the assay with Alopecurus myosuroides (16 g/ha) was 55. Besides, the “damages, Avena fatua” value in the assay with Avena fatua was found to be 20. Further, the “damages, Amaranthus retroflexus” value with Amaranthus retroflexus is given as 45. Further, the “damages, Setaria faberi” value with Setaria faberi came to 0.

With `CCOC(=O)COc1ccc(Oc2cc(-n3nc(C)n(C(F)F)c3=O)c(F)cc2Cl)cc1` [compound B], in the assay on Alopecurus myosuroides (4 g/ha), the “damages, Alopecurus myosuroides” value turned out to be 30. Further, the “damages, Lolium multiflorum” value with Lolium multiflorum is reported as 70. Moreover, the “damages, Amaranthus retroflexus” value in the assay with Amaranthus retroflexus is listed as 45. The “damages, Setaria faberi” value in the assay on Setaria faberi stood at 0.
